From paper PMC8617944, “Preclinical Pharmacokinetics and Acute Toxicity in Rats of 5-{[(2E)-3-Bromo-3-carboxyprop-2-enoyl]amino}-2-hydroxybenzoic Acid: A Novel 5-Aminosalicylic Acid Derivative with Potent Anti-Inflammatory Activity” (Molecules, 2021)
Values joined by “and” are separate entries in the source; they are usually repeats but may differ in a detail not shown here. Equal entries are not always repeated. Where two headings read alike, the source gives them in different places.

Assay: Distribution of C1 in tissues
Format: in vivo, Wistar rats
Details: p.o. 75 mg/kg, 75 mg/kg; for concentration at 10 min / concentration at 30 min / concentration at 90 min / concentration at 3 h / concentration at 6 h: male, Wistar, rat, po
Method: Fifteen male Wistar rats were distributed in five groups (n = 3) and rats were orally administered C1 at a single dose of 75 mg/kg. Subsequently, a group of animals was sacrificed (n = 3) at 10, 30, 90, 180, and 360 min. […] All tissues and organs were weighed on an analytical balance and immediately processed. Each tissue sample was homogenized with saline solution in a 1:3 (wt/v) ratio. The preparation process for analysis was the same as described above for plasma samples [57] (File S8).

[1] = Small intestine, individual rats

With `O=C(/C=C(/Br)C(=O)O)Nc1ccc(O)c(C(=O)O)c1` [Compound C1, 5-{[(2E)-3-bromo-3-carboxyprop-2-enoyl]amino}-2-hydroxybenzoic acid] the “Concentration (µg/mL) at 30 minutes, Rat 1-3” value (Brain, individual rats) was 4.1 µg/mL and 3.2 µg/mL, the “Concentration (µg/mL) at 90 minutes, Rat 1-3” value (Brain, individual rats) was 3.3 µg/mL and 3.8 µg/mL and the “Concentration (µg/mL) at 3 h, Rat 1-3” value (Brain, individual rats) was 1.9 µg/mL and 3.2 µg/mL. The “Concentration (µg/mL) at 6 h, Rat 1-3” value (Brain, individual rats) was 3.0 µg/mL, the “Concentration (µg/mL) at 10 minutes, Rat 1-3” value (Colon, individual rats) was 7.5 µg/mL and 9.4 µg/mL and the “Concentration (µg/mL) at 30 minutes, Rat 1-3” value (Colon, individual rats) was 10.6 µg/mL and 8.5 µg/mL and 3.9 µg/mL. For the same molecule, the “Concentration (µg/mL) at 90 minutes, Rat 1-3” value (Colon, individual rats) was 7.9 µg/mL and 6.8 µg/mL, the “Concentration (µg/mL) at 3 h, Rat 1-3” value (Colon, individual rats) was 3.6 µg/mL and 6.1 µg/mL and 7.5 µg/mL and the “Concentration (µg/mL) at 10 minutes, Rat 1-3” value (Hearth, individual rats) was 8.0 µg/mL and 1.3 µg/mL and 12.4 µg/mL. For the same molecule, the “Concentration (µg/mL) at 30 minutes, Rat 1-3” value (Hearth, individual rats) was 4.4 µg/mL and 2.6 µg/mL, the “Concentration (µg/mL) at 90 minutes, Rat 1-3” value (Hearth, individual rats) was 3.9 µg/mL and 3.0 µg/mL and the “Concentration (µg/mL) at 3 h, Rat 1-3” value (Hearth, individual rats) was 2.2 µg/mL and 4.0 µg/mL. For the same molecule, the “Concentration (µg/mL) at 10 minutes, Rat 1-3” value (Kidney, individual rats) was 14.1 µg/mL and 11.2 µg/mL and 22.6 µg/mL, the “Concentration (µg/mL) at 30 minutes, Rat 1-3” value (Kidney, individual rats) was 9.1 µg/mL and 5.4 µg/mL and the “Concentration (µg/mL) at 90 minutes, Rat 1-3” value (Kidney, individual rats) was 6.1 µg/mL and 4.7 µg/mL. For the same molecule, the “Concentration (µg/mL) at 3 h, Rat 1-3” value (Kidney, individual rats) was 4.2 µg/mL and 3.3 µg/mL and 6.8 µg/mL, the “Concentration (µg/mL) at 10 minutes, Rat 1-3” value (Liver, individual rats) was 5.1 µg/mL and 4.4 µg/mL and the “Concentration (µg/mL) at 30 minutes, Rat 1-3” value (Liver, individual rats) was 7.2 µg/mL and 6.4 µg/mL. The “Concentration (µg/mL) at 90 minutes, Rat 1-3” value (Liver, individual rats) was 2.6 µg/mL and 5.6 µg/mL and 5.1 µg/mL, the “Concentration (µg/mL) at 3 h, Rat 1-3” value (Liver, individual rats) was 5.0 µg/mL and 2.6 µg/mL and 7.0 µg/mL and the “Concentration (µg/mL) at 10 minutes, Rat 1-3” value (Lung, individual rats) was 23.3 µg/mL and 6.2 µg/mL and 17.7 µg/mL. The “Concentration (µg/mL) at 30 minutes, Rat 1-3” value (Lung, individual rats) was 14.6 µg/mL and 6.7 µg/mL and 10.9 µg/mL, the “Concentration (µg/mL) at 90 minutes, Rat 1-3” value (Lung, individual rats) was 4.0 µg/mL and 13.3 µg/mL and 4.8 µg/mL and the “Concentration (µg/mL) at 3 h, Rat 1-3” value (Lung, individual rats) was 3.9 µg/mL and 7.9 µg/mL and 10.0 µg/mL. For the same molecule, the “Concentration (µg/mL) at 30 minutes, Rat 1-3” value (Muscle, individual rats) was 4.0 µg/mL, the “Concentration (µg/mL) at 90 minutes, Rat 1-3” value (Muscle, individual rats) was 3.3 µg/mL and 3.6 µg/mL and the “Concentration (µg/mL) at 3 h, Rat 1-3” value (Muscle, individual rats) was 2.4 µg/mL and 2.6 µg/mL. For the same molecule, the “Concentration (µg/mL) at 30 minutes, Rat 1-3” value [1] was 18.3 µg/mL and 23.9 µg/mL and 4.9 µg/mL, the “Concentration (µg/mL) at 90 minutes, Rat 1-3” value [1] was 14.1 µg/mL and 18.2 µg/mL and the “Concentration (µg/mL) at 3 h, Rat 1-3” value [1] was 15.4 µg/mL and 14.9 µg/mL. The “Concentration (µg/mL) at 10 minutes, Rat 1-3” value (Spleen, individual rats) was 22.6 µg/mL and 42.7 µg/mL, the “Concentration (µg/mL) at 30 minutes, Rat 1-3” value (Spleen, individual rats) was 15.6 µg/mL and 15.0 µg/mL and the “Concentration (µg/mL) at 90 minutes, Rat 1-3” value (Spleen, individual rats) was 5.5 µg/mL and 17.1 µg/mL and 12.4 µg/mL. The “Concentration (µg/mL) at 3 h, Rat 1-3” value (Spleen, individual rats) was 10.4 µg/mL and 4.7 µg/mL and 11.1 µg/mL, the “Concentration (µg/mL) at 10 minutes, Rat 1-3” value (Stomach, individual rats) was 24.1 µg/mL and 10.3 µg/mL and 20.5 µg/mL and the “Concentration (µg/mL) at 30 minutes, Rat 1-3” value (Stomach, individual rats) was 13.0 µg/mL and 11.8 µg/mL and 5.8 µg/mL. For the same molecule, the “Concentration (µg/mL) at 90 minutes, Rat 1-3” value (Stomach, individual rats) was 10.4 µg/mL and 8.4 µg/mL and 4.8 µg/mL, the “Concentration (µg/mL) at 3 h, Rat 1-3” value (Stomach, individual rats) was 3.7 µg/mL and 8.5 µg/mL and 7.1 µg/mL and the “Concentration (µg/mL) at 30 minutes, Rat 1-3” value (Testis, individual rats) was 4.8 µg/mL and 2.4 µg/mL. For the same molecule, the “Concentration (µg/mL) at 90 minutes, Rat 1-3” value (Testis, individual rats) was 2.7 µg/mL and 5.8 µg/mL and 3.5 µg/mL, the “Concentration (µg/mL) at 3 h, Rat 1-3” value (Testis, individual rats) was 2.8 µg/mL and 3.2 µg/mL and the concentration at 10 min (brain, Brain, 10 min, n = 3, read-out: Average Concentration) was 3.7 µg/mL. For the same molecule, the concentration at 30 min (brain, Brain, 30 min, n = 3, read-out: Average Concentration) was 3.5 µg/mL, the concentration at 90 min (brain, Brain, 90 min, n = 3, read-out: Average Concentration) was 3.4 µg/mL and the concentration at 3 h (brain, Brain, 3 h, n = 3, read-out: Average Concentration) was 2.8 µg/mL. For the same molecule, the concentration at 6 h (brain, Brain, 6 h, n = 3, read-out: Average Concentration) was 2.5 µg/mL, the concentration at 10 min (brain, Brain, individual rats, read-out: Concentration (µg/mL) at 10 minutes, Rat 1-3) was 4.1 µg/mL and the concentration at 30 min (brain, Brain, individual rats, read-out: Concentration (µg/mL) at 30 minutes, Rat 1-3) was 3.2 µg/mL. It also gave a concentration at 90 min (brain, Brain, individual rats, read-out: Concentration (µg/mL) at 90 minutes, Rat 1-3) of 3.1 µg/mL, a concentration at 3 h (brain, Brain, individual rats, read-out: Concentration (µg/mL) at 3 h, Rat 1-3) of 3.2 µg/mL and a concentration at 6 h (brain, Brain, individual rats, read-out: Concentration (µg/mL) at 6 h, Rat 1-3) of 2.2 µg/mL. The concentration at 10 min (colon, Colon, 10 min, n = 3, read-out: Average Concentration) was 10.3 µg/mL, the concentration at 30 min (colon, Colon, 30 min, n = 3, read-out: Average Concentration) was 7.6 µg/mL and the concentration at 90 min (colon, Colon, 90 min, n = 3, read-out: Average Concentration) was 6.3 µg/mL. The concentration at 3 h (colon, Colon, 3 h, n = 3, read-out: Average Concentration) was 5.7 µg/mL, the concentration at 6 h (colon, Colon, 6 h, n = 3, read-out: Average Concentration) was 6 µg/mL and the concentration at 10 min (colon, Colon, individual rats, read-out: Concentration (µg/mL) at 10 minutes, Rat 1-3) was 14.2 µg/mL. For the same molecule, the concentration at 90 min (colon, Colon, individual rats, read-out: Concentration (µg/mL) at 90 minutes, Rat 1-3) was 4.2 µg/mL, the concentration at 10 min (heart, Hearth, 10 min, n = 3, read-out: Average Concentration) was 7.2 µg/mL and the concentration at 30 min (heart, Hearth, 30 min, n = 3, read-out: Average Concentration) was 3.6 µg/mL. For the same molecule, the concentration at 90 min (heart, Hearth, 90 min, n = 3, read-out: Average Concentration) was 3.2 µg/mL and the concentration at 3 h (heart, Hearth, 3 h, n = 3, read-out: Average Concentration) was 2.9 µg/mL.
